Data reported in ChEMBL document CHEMBL4414642, “Buxaustroines A-N, a Series of 17(13→18)abeo-Cycloartenol Triterpenoidal Alkaloids from Buxus austro-yunnanensis and Their Cardioprotective Activities” (J Nat Prod, 2019).
Active and inactive are the calls of the source. The calls are words filed in the database; no cut-off is given here.

Legend:
H9c2 [1] = test: Cardioprotective activity against rat H9c2 cells assessed as inhibition of doxorubicin-induced reduction in cell viability at 0.5 uM preincubated for 30 mins followed by doxorubicin treatment and measured after 48 hrs by CCK8 assay; type: functional, cell-based
H9c2 [2] = test: Cardioprotective activity against rat H9c2 cells assessed as inhibition of doxorubicin-induced reduction in cell viability at 1 uM preincubated for 30 mins followed by doxorubicin treatment and measured after 48 hrs by CCK8 assay; type: functional, cell-based
H9c2 [3] = test: Cytotoxicity against rat H9c2 cells at 1 uM after 48 hrs by CCK-8 assay; type: cell-based; conditions: h9c2, 48 h

Row | SMILES | Activity (H9c2 [1]) | Activity (H9c2 [2]) | Activity (H9c2 [3])
1 | C=C1[C@@H](NC)CC[C@@]23C[C@]24CC[C@]2(O)C[C@H](CC)C(=O)C[C@@]2(C)[C@@H]4CC[C@@H]13 | inactive | inactive | Non-Toxic
2 | CCC1=C[C@H]2CC[C@@]34C[C@]35CC[C@H](N(C)C)[C@@H](C)[C@@H]5CC[C@H]4[C@]2(C)CC1=O | Active | Active | Non-Toxic
3 | CC[C@H]1C=C2CC[C@@]34C[C@]35CC[C@H](NC)C(C)(C)[C@@H]5C=C[C@H]4[C@]2(C)C[C@@H]1O |  |  | Non-Toxic
4 | C=C1[C@@H](N(C)C)CC[C@@]23C[C@]24CC[C@]2(O)C=C(CC)C(=O)C[C@@]2(C)[C@@H]4CC[C@@H]13 | inactive | inactive | Non-Toxic
5 | CCC1=C[C@H]2CC[C@@]34C[C@]35CC[C@H](NC)[C@@H](C)[C@@H]5CC[C@H]4[C@]2(C)CC1=O | Active |  | Non-Toxic
6 | CC[C@H]1C[C@@]2(O)CC[C@@]34C[C@]35CC[C@H](NC)C(C)(C)[C@@H]5CC[C@H]4[C@]2(C)CC1=O | inactive | inactive | Non-Toxic
7 | C=C1[C@@H](NC)CC[C@@]23C[C@]24CC[C@@H]2C=C(CC)C(=O)C[C@@]2(C)[C@@H]4CC[C@@H]13 | Active |  | Non-Toxic
8 | CCC1=CC2=CC[C@@]34C[C@]35CC[C@H](NC)C(C)(C)[C@@H]5CC[C@H]4[C@]2(C)CC1=O | Active |  | Non-Toxic
9 | C=C1[C@@H](NC)CC[C@@]23C[C@]24CC=C2C=C(CC)C(=O)C[C@@]2(C)[C@@H]4CC[C@@H]13 | Active |  | Non-Toxic
10 | C/C=C1/C(=O)C[C@@]2(C)[C@@H]3CC[C@H]4C(C)(C)[C@@H](NC)CC[C@]45C[C@@]35CC[C@]12C | Active |  | Non-Toxic
11 | C=C1[C@@H](NC)CC[C@@]23C[C@]24CCC2=C[C@](O)(CC)C(=O)C[C@@]2(C)[C@@H]4CC[C@@H]13 |  |  | Non-Toxic
12 | CCC1=C[C@H]2CC[C@@]34C[C@]35CC[C@H](NC)C(C)(C)[C@@H]5C=C[C@H]4[C@]2(C)CC1=O | Active |  | Non-Toxic
13 | CN[C@@H](C)[C@H]1[C@H](O)C[C@@]2(C)[C@@H]3CC[C@H]4C(C)(C)[C@@H](NC)CC[C@]45C[C@@]35CC[C@]12C |  | Active | Non-Toxic
14 | CCC1=C[C@@]2(O)CC[C@@]34C[C@]35CC[C@H](NC)C(C)(C)[C@@H]5C=C[C@H]4[C@]2(C)CC1=O | inactive | inactive | Non-Toxic
15 | C=C1[C@@H](N(C)C)CC[C@@]23C[C@]24CC[C@]2(O)C[C@H](CC)C(=O)C[C@@]2(C)[C@@H]4CC[C@@H]13 | inactive | inactive | Non-Toxic
16 | CCC1=C[C@H]2CC[C@@]34C[C@]35CC[C@H](NC)C(C)(C)[C@@H]5C[C@H](OC(C)=O)[C@H]4[C@]2(C)CC1=O |  |  | Non-Toxic
